# Article PMC9329436, “Optimization of the 4-anilinoquin(az)oline scaffold as epidermal growth factor receptor (EGFR) inhibitors for chordoma utilizing a toxicology profiling assay platform” (Scientific Reports, 2022)
# Several values for one entry are separate records, joined by “and”; a condition that tells them apart may be missing. Equal values may be shown once.
# Experiments:
# U-CH1 chordoma cell line = assay: Cell viability assay (alamarBlue, 72 h), U-CH1; type: cell-based, human; settings: n = 4, 72 h
# Protocol: (§1) Chordoma cell lines were cultured as described previously[10],[12],[33],[34]. Briefly, U-CH1 and U-CH2 cell lines were cultured in 4:1 IMDM:RPMI medium supplemented with 10% fetal bovine serum (FBS) and 1% penicillin/streptomycin in gel-coated flasks. […] CH22, UM-Chor1, U-CH12, and U-CH7 cell lines were cultured in RPMI medium supplemented with 10% FBS and 1% penicillin/streptomycin. The cell lines all undergo regular mycoplasma screening.
# (§2) Cells were seeded in 384 well plates and were treated with test compound in quadruplicate 24 h after plating. Cell viability was assessed at 72 h using alamarBlue (ThermoFisher, USA). […] IC50 values were determined by four-parameter nonlinear regression analyses using GraphPad Prism™ version 8 software (San Diego, CA).
# U-CH2 chordoma cell line = assay: Cell viability assay (alamarBlue, 72 h), U-CH2; type: cell-based, human
# Protocol: as §1, §2
# [1] = test system: CH22 patient-derived chordoma cell line; assay: Cell viability assay (alamarBlue, 72 h), CH22; type: cell-based, human; settings: n = 4, 72 h
# Protocol: as §1, §2
# [2] = test system: UM-Chor1 patient-derived chordoma cell line; assay: Cell viability assay (alamarBlue, 72 h), UM-Chor1; type: cell-based, human; settings: n = 4, 72 h
# Protocol: as §1, §2
# [3] = test system: U-CH12 patient-derived chordoma cell line; assay: Cell viability assay (alamarBlue, 72 h), U-CH12; type: cell-based, human; settings: n = 4, 72 h
# Protocol: as §1, §2
# [4] = test system: U-CH7 patient-derived chordoma cell line; assay: Cell viability assay (alamarBlue, 72 h), U-CH7; type: cell-based, human; settings: n = 4, 72 h
# Protocol: as §1, §2
# [5] = test system: WS1 human fibroblast cell line; assay: Cell viability assay, WS1 toxicity control; type: cell-based; settings: n = 4, nonspecific toxicity control
# Protocol: as §2
# HL60 cells = assay: AsedaSciences SYSTEMETRIC Cell Health Screen (flow cytometry toxicity profiling); settings: for CC: Cell Cycle score / CM: Cell morphology score / CMI: Cell membrane integrity score / GSH: Glutathione score / MMP: Mitochondrial membrane depolarization score / NMI1: Nuclear membrane integrity 1 score / NMI2: Nuclear membrane integrity 2 score / ROS: Reactive superoxide species score / CHI: Cell Health Index: HL60, 4 h, 5 nM–100 µM; for CC: Cell Cycle score / CM: Cell morphology score / CMI: Cell membrane integrity score / GSH: Glutathione score / MMP: Mitochondrial membrane depolarization score / NMI1: Nuclear membrane integrity 1 score / NMI2: Nuclear membrane integrity 2 score / ROS: Reactive superoxide species score: probability 0–1, n = 2; for CHI: Cell Health Index: probability (0–1) of high-risk class, n = 2
# Outline: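 HL60 cells (100,000 per well) exposed 4 h at 37 °C, 5% CO2 to 10-step 3× dilutions (5 nM–100 µM), in duplicate. Cells then stained with mitochondrial and cell-stress reporter dyes and read by ungated flow cytometry over twelve parameters. Cell Health Index and eight endpoint scores come from an ML classifier trained on 300 high/low-risk compounds.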
# EGFR = EGFR (Homo sapiens, UniProt P00533); assay: ProQinase in-cell EGFR assay (EGFR phosphorylation in A431 cells); type: cell-based; set-up: This cell line endogenously expresses a high level of EGFR; endogenous in cells; host or cells: A431; settings: ProQinase in-cell EGFR assay, A431 cells, n = 1
# Excerpt: In addition, we ran an EGFR in-cell target engagement assay, measuring in-cell EGFR phosphorylation, using the human epidermoid carcinoma cell line A431. This cell line endogenously expresses a high level of EGFR, and stimulation of these cells with human epidermal growth factor (EGF) results in receptor tyrosine autophosphorylation.
# [6] = SYSTEMETRIC Cell Health Screen, assay n=2
# Sequence of EGFR (P00533 25-1210): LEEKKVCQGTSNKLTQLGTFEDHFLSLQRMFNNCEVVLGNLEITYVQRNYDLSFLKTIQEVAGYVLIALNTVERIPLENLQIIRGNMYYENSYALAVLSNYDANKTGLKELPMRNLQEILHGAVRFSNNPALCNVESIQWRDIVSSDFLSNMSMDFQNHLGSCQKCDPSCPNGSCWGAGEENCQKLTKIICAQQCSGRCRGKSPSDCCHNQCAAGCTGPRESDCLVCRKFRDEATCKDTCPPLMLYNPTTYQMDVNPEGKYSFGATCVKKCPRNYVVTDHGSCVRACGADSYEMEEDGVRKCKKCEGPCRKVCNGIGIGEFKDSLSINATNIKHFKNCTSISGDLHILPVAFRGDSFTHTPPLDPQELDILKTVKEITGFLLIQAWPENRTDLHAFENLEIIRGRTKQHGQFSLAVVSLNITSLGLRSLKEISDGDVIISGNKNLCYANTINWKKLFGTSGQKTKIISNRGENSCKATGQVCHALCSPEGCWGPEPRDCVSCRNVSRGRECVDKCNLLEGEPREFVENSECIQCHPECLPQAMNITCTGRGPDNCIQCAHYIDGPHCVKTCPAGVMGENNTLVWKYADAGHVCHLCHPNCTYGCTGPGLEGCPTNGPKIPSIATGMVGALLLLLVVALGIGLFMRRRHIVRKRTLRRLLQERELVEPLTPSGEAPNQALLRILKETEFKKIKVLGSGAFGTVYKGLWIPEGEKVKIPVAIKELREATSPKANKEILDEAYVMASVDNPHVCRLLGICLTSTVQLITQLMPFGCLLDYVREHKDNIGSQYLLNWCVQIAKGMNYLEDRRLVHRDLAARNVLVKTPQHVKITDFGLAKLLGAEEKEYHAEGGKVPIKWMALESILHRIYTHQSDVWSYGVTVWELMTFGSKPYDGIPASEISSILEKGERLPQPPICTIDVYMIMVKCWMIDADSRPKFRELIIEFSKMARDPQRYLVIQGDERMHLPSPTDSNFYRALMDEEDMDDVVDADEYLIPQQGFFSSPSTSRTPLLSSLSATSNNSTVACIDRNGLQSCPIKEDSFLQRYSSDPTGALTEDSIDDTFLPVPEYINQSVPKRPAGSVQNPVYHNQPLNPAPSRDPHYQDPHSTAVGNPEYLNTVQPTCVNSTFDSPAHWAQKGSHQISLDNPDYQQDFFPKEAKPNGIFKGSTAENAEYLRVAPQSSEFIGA
Structure (SMILES),IC50 (U-CH1 chordoma cell line),"IC50 (U-CH2 chordoma cell line; n = 4, 72 h)",IC50 [1],IC50 [2],IC50 [3],IC50 [4],IC50 [5],CC: Cell Cycle score (HL60 cells),CM: Cell morphology score (HL60 cells),CMI: Cell membrane integrity score (HL60 cells),GSH: Glutathione score (HL60 cells),MMP: Mitochondrial membrane depolarization score (HL60 cells),NMI1: Nuclear membrane integrity 1 score (HL60 cells),NMI2: Nuclear membrane integrity 2 score (HL60 cells),ROS: Reactive superoxide species score (HL60 cells),CHI: Cell Health Index (HL60 cells),IC50 (EGFR),further results
C#Cc1cc(Nc2ncnc3ccc(I)cc23)ccc1F [Compound 36],2.7 µM,> 100 µM,> 100 µM,> 100 µM,> 100 µM,> 100 µM,> 100 µM,0.038,0.011,0.31,0.068,0.13,0.24,0.048,0.35,0.27,2.7 µM,–
C#Cc1cccc(Nc2ncnc3cc(C(F)(F)F)ccc23)c1 [Compound 16],12 µM,15 µM,8 µM,31 µM,7.5 µM,63 µM,18 µM,0.92,1.00,0.87,0.79,1.00,0.6,0.93,1.00,0.78,> 20 µM,–
"C#Cc1cccc(Nc2ncnc3ccc(I)cc23)c1 [Compound 9, N-(3-ethynylphenyl)-6-iodoquinazolin-4-amine]",–,–,–,–,–,–,–,0.087 and 0.071,0.0063,–,0.050 and 0.029,–,0.13 and 0.069,–,0.083 and 0.088,0.21,0.83 µM,"IC50 (U-CH1 chordoma cell line; Homo sapiens, UCH1, 72 h): 8.7 µM; IC50 (U-CH2 chordoma cell line; Homo sapiens, UCH2, n = 4, 72 h): > 100 µM; IC50 ([1]; Homo sapiens): > 100 µM; IC50 ([2]; Homo sapiens): > 100 µM; IC50 ([3]; Homo sapiens): > 100 µM; IC50 ([4]; Homo sapiens): > 100 µM; IC50 ([5]; Homo sapiens, Fibroblast): 98 µM"
C#Cc1cccc(Nc2ccnc3ccc(I)cc23)c1F [Compound 35],8.9 µM,> 100 µM,> 100 µM,> 100 µM,> 100 µM,> 100 µM,85 µM,0.12,0.0052,0.78,0.16,0.47,0.62,0.62,0.46,0.37,1.9 µM,–
C#Cc1cccc(Nc2ncnc3cc4c(cc23)OCCO4)c1 [Compound 21],8.8 µM,> 100 µM,> 100 µM,64 µM,> 100 µM,> 100 µM,> 100 µM,0.77,0.053,0.91,0.39,0.91,0.73,0.83,0.85,0.56,1.9 µM,–
C#Cc1ccc(F)c(Nc2ncnc3cc(I)ccc23)c1 [Compound 38],15 µM,> 100 µM,> 100 µM,> 100 µM,> 100 µM,> 100 µM,> 100 µM,0.98,1.00,1.00,1.00,0.96,0.99,1.00,1.00,0.88,5.2 µM,–
C#Cc1cccc(Nc2ccnc3cc(I)ccc23)c1F [Compound 39],2.4 µM,15 µM,40 µM,62 µM,33 µM,49 µM,40 µM,0.64,0.98,0.30,0.92,0.60,0.15,0.75,0.99,0.43,1.7 µM,–
C#Cc1cccc(Nc2c(C#N)cnc3cc(I)ccc23)c1 [Compound 32],> 100 µM,> 100 µM,> 100 µM,> 100 µM,> 100 µM,> 100 µM,> 100 µM,0.95,1.00,1.00,0.98,0.99,0.95,0.94,0.99,0.81,2.7 µM,"Cell Health Toxcity Profile CC (DyeCycle Violet) (HL60 cells; [6]): 0.95; Cell Health Toxcity Profile CM (Cell morphology) (HL60 cells; [6]): 1.00; Cell Health Toxcity Profile CMI (Cell membrane integrity) (HL60 cells; [6]): 1.00; Cell Health Toxcity Profile GSH (Glutathione) (HL60 cells; [6]): 0.98; Cell Health Toxcity Profile MMP (Mitochondrial membrane depolarization) (HL60 cells; [6]): 0.99; Cell Health Toxcity Profile NMI1 (Nuclear membrane integrity 1) (HL60 cells; [6]): 0.95; Cell Health Toxcity Profile NMI2 (Nuclear membrane integrity 2) (HL60 cells; [6]): 0.94; Cell Health Toxcity Profile ROS (Reactive superoxide species) (HL60 cells; [6]): 0.99; Cell Health Toxcity Profile CHI (HL60 cells; SYSTEMETRIC Cell Health Screen, classifier output, assay n=2): 0.81"
C#Cc1cccc(Nc2ncnc3cc(I)ccc23)c1 [Compound 15],17 µM,> 100 µM,> 100 µM,> 100 µM,> 100 µM,> 100 µM,> 100 µM,0.95,1.00,1.00,0.98,0.99,0.21,0.94,1.00,0.77,2.8 µM,–
C#Cc1cccc(Nc2ncnc3cc(OC)ccc23)c1 [Compound 11],1.9 µM,1.2 µM,> 100 µM,> 100 µM,> 100 µM,95 µM,88 µM,0.52,0.050,0.032,0.0085,0.068,0.61,0.15,0.63,0.25,0.53 µM,–
C#Cc1cccc(Nc2ncnc3cc(OC)c(OC)cc23)c1F [Compound 43],2 µM,7.1 µM,5.8 µM,> 100 µM,> 100 µM,57 µM,12 µM,0.059,0.0093,0.56,0.38,0.28,0.10,0.59,0.024,0.33,0.06 µM,–
C#Cc1ccc(F)c(Nc2ncnc3ccc(I)cc23)c1 [Compound 34],27 µM,> 100 µM,> 100 µM,> 100 µM,> 100 µM,> 100 µM,> 100 µM,0.25,0.025,0.014,0.044,0.030,0.17,0.078,0.074,0.18,0.76 µM,–
